# Test results: patent US7998965B2, “Glutamate aggrecanase inhibitors” (Wyeth LLC, priority 2005, dated 2011)
# Assays:
# [1] = molecular target: T1, purified recombinant human Aggrecanase-1 (rAgg1) (Homo sapiens, UniProt O75173); assay: In vitro fluorescence screen for Aggrecanase-1 inhibitors; assay type: biochemical; conditions: Table 3; for IC50: read-out: Agg1 IC50; for Ki: read-out: Ki Agg1
# T1 sequence (O75173 213-837): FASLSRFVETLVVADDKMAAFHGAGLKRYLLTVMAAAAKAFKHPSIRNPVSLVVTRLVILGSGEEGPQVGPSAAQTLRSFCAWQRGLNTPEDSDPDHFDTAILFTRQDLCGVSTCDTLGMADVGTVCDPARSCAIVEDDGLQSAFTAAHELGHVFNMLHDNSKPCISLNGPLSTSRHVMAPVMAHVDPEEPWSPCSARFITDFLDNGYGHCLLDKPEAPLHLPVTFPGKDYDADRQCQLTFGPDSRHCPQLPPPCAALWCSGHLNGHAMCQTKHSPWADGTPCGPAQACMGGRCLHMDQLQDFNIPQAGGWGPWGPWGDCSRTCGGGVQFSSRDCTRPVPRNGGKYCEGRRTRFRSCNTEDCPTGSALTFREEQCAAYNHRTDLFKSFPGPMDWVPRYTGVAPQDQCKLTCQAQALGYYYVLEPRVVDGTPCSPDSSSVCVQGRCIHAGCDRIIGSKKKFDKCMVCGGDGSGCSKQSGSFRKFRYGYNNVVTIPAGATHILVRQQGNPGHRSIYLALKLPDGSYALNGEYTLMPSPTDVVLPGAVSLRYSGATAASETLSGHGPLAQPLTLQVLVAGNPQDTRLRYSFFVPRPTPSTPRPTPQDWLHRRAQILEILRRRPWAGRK
# [2] = molecular target: T2, purified recombinant human Aggrecanase-2 (Ag2t-Phe628-Strep) (Homo sapiens, UniProt Q9UNA0); assay: In vitro fluorescence screen for Aggrecanase-2 inhibitors; assay type: biochemical; conditions: Table 3; for IC50: read-out: Agg 2 IC50; for Ki: read-out: Ki Agg2
# T2 construct: the form used is denoted as Ag2t-Phe628-Strep (MW=41,737)
# T2 sequence (Q9UNA0 262-628): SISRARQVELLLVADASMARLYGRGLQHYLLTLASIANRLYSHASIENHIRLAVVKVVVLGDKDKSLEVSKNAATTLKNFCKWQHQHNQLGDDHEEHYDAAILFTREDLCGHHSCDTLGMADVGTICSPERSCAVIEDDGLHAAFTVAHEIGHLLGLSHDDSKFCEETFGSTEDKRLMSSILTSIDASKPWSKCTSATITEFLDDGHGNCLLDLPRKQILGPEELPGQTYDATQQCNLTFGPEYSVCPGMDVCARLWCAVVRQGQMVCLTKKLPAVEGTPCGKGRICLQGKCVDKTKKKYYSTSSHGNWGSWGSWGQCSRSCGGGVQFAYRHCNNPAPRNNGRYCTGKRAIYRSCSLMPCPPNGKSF
# [3] = molecular target: T3, recombinant human MMP-2 (Homo sapiens, UniProt P08253); assay: In vitro fluorescence assay of MMP-2 activity
# T3 sequence (P08253 110-660): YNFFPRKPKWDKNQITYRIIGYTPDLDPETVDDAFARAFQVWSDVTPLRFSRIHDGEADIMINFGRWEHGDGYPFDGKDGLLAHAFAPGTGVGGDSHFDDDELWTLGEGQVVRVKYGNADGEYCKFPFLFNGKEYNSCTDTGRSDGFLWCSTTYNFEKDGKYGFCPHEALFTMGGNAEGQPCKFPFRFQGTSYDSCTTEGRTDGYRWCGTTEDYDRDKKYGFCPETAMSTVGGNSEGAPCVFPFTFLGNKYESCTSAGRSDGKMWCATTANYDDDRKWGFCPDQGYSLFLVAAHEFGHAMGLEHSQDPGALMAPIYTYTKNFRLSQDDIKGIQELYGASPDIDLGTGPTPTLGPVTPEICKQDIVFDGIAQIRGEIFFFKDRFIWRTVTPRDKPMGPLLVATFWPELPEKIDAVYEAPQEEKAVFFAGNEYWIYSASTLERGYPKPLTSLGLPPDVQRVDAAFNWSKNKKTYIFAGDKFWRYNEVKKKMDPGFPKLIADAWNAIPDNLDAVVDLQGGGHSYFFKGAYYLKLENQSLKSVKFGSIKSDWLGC
# Procedure: A continuous assay was used in which the substrate is a synthetic peptide containing a fluorescent group (7-methoxycoumarin; Mca), which is quenched by energy transfer to a 2,4-dinitrophenyl group. […] The source of enzyme in the assay was the recombinant human MMP-2 (66 kDa; Oncogene Research Products (catalog number PF023 from Calbiochem)). The substrate used was the peptide Mca-PQGL-(3-[2,4-dinitrophenyl]-L-2,3-diaminopropionyl)-AR-OH. The assay buffer consisted of 50 mM Hepes (pH 7.4), 100 mM NaCl, 5 mM CaCl2, and 0.005% Brij-35. […] The plates were then incubated at 30° C. for 15 minutes. The enzymatic reactions were initiated by adding the substrate to a final concentration of 20 μM, and mixing 10 times with a pipette. The final DMSO concentration in the assay was 6.0%.
# Plots of the inhibitor concentration vs. the percent inhibition were fit to the following equation: y=(a−d)/[^1+(x/c)^b]+d, a general sigmoidal curve with Hill slope, a to d. x is the inhibitor concentration under test. y is the percent inhibition. a is the limiting response as x approaches zero. As x increases without bound, y tends toward its limit d. c is the inflection point (IC50) for the curve. That is, y is halfway between the lower and upper asymptotes when x=c. b is the slope factor or Hill coefficient.
# [4] = molecular target: MMP-12 (Homo sapiens, UniProt P39900); assay: MMP-12 of Table 3; assay type: biochemical; conditions: unit inferred
# MMP-12, sequence (P39900 106-470): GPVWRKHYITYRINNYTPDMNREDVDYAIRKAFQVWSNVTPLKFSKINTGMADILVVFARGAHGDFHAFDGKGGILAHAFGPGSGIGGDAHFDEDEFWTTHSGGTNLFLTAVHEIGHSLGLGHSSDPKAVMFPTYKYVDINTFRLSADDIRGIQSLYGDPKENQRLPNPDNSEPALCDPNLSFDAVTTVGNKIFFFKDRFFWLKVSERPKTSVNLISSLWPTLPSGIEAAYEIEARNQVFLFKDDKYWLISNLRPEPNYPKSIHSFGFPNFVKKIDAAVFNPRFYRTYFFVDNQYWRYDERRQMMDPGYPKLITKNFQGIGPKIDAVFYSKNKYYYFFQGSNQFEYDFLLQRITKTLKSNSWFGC
# [5] = molecular target: MMP-8 (Homo sapiens, UniProt P22894); assay: MMP-8 of Table 3; assay type: biochemical; conditions: unit inferred
# MMP-8, sequence (P22894 101-467, species assumed): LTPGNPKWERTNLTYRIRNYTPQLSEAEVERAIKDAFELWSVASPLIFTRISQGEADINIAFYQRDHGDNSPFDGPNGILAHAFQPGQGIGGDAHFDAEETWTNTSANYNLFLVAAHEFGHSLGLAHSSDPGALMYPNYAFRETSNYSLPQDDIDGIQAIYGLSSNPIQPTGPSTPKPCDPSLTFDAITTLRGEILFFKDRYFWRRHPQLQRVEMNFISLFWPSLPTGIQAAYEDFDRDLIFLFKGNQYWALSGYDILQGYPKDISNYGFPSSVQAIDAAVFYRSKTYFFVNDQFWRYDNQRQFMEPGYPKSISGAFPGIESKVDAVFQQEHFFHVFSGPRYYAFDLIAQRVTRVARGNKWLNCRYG
Structure (SMILES),IC50 [1] [µM],Ki [1] [µM],IC50 [2] [µM],Ki [2] [µM],IC50 [3] [µM],IC50 [4] [µM],IC50 [5] [µM]
"CC(C)(Cc1ccc(Cl)s1)NC(=O)[C@H](CCC(=O)O)NC(=O)c1ccc(-c2cccc(F)c2)cc1 [Example 8XXXXXX, N-[2-(5-chloro-2-thienyl)-1,1-dimethylethyl]-N^2-[(3′-fluorobiphenyl-4-yl)carbonyl]-L-α-glutamine]",< 0.03,< 0.003,0.02,0.06,7.5,1.6,4.1
"CC(C)(Cc1ccc(Cl)cc1)NC(=O)[C@H](CCC(=O)O)NC(=O)c1ccc(-c2ccc(Cl)cc2)cc1 [Example 8XXXXXXXXX, N^2-[(4′-chlorobiphenyl-4-yl)carbonyl]-N-[2-(4-chlorophenyl)-1,1-dimethylethyl]-L-α-glutamine]",< 0.03,0.0182,0.025,0.0716,2.61,0.597,1.79
"CC(C)(Cc1ccc(F)cc1)NC(=O)[C@H](CCC(=O)O)NC(=O)c1ccc(-c2ccc(F)c(F)c2)cc1 [Example 8YYYYYY, N^2-[(3′,4′-difluorobiphenyl-4-yl)carbonyl]-N-[2-(4-fluorophenyl)-1,1-dimethylethyl]-L-α-glutamine]",< 0.03,0.0135,0.03,0.16,4.7,0.365,0.737
"CC(C)(Cc1ccc(F)cc1)NC(=O)[C@H](CCC(=O)O)NC(=O)c1ccc(-c2ccc(F)cc2)s1 [Example 8ZZZZZZZZZ, N-[2-(4-fluorophenyl)-1,1-dimethylethyl]-N^2-{[5-(4-fluorophenyl)-2-thienyl]carbonyl}-L-α-glutamine]",< 0.03,0.0047,0.03 to 0.09,0.123,8.28,2.86,2.44
"CC(C)(Cc1ccccc1)NC(=O)[C@H](CCC(=O)O)NC(=O)c1ccc(-c2cccc(F)c2)cc1 [N-(1,1-dimethyl-2-phenylethyl)-N^2-[(3′-fluorobiphenyl-4-yl)carbonyl]-L-α-glutamine]",< 0.03,0.0232,0.08,0.18,6.4,1.07,2.5
"CC(C)(Cc1ccccc1)NC(=O)[C@H](CCC(=O)O)NC(=O)c1ccc(-c2ccc(F)cc2)cc1 [N-(1,1-dimethyl-2-phenylethyl)-N^2-[(4′-fluorobiphenyl-4-yl)carbonyl]-L-α-glutamine]",< 0.03,0.0272,0.09,0.218,4,0.628,0.763
"CC(C)(Cc1ccccc1)NC(=O)[C@H](CCC(=O)O)NC(=O)c1ccc(-c2ccc(F)cc2)s1 [N-(1,1-dimethyl-2-phenylethyl)-N^2-{[5-(4-fluorophenyl)-2-thienyl]carbonyl}-L-α-glutamine]",< 0.03,0.0115,0.03 to 0.3,0.126,7.24,2.89,2.55
"CC(C)(Cc1ccc(Cl)cc1)NC(=O)[C@H](CCC(=O)O)NC(=O)c1ccc(-c2cccc(Cl)c2)cc1 [N^2-[(3′-chlorobiphenyl-4-yl)carbonyl]-N-[2-(4-chlorophenyl)-1,1-dimethylethyl]-L-α-glutamine]",< 0.03,0.0396,0.25,0.349,25.5,3.71,13.2

# More lines, now with the values ahead:
IC50 [1] [µM],Ki [1] [µM],IC50 [2] [µM],Ki [2] [µM],IC50 [3] [µM],IC50 [4] [µM],IC50 [5] [µM],Structure (SMILES)
< 0.03,0.0289,0.1 to 0.3,0.204,6.97,2.24,2.23,"CC(C)(Cc1ccccc1)NC(=O)[C@H](CCC(=O)O)NC(=O)c1ccc(-c2ccc(Cl)cc2)s1 [N^2-{[5-(4-chlorophenyl)-2-thienyl]carbonyl}-N-(1,1-dimethyl-2-phenylethyl)-L-α-glutamine]"
< 0.03,0.0117,> 0.1,0.405,8,> 10,3.4,"CC(C)(Cc1ccc(F)cc1)NC(=O)[C@H](CCC(=O)O)NC(=O)c1ccc(-c2ccc(Cl)cc2)s1 [N^2-{[5-(4-chlorophenyl)-2-thienyl]carbonyl}-N-[2-(4-fluorophenyl)-1,1-dimethylethyl]-L-α-glutamine]"
< 0.03,0.042,> 0.3,0.723,1.3,> 10,> 5,"CC(C)(Cc1ccc(F)cc1)NC(=O)[C@H](CCC(=O)O)NC(=O)c1ccc(-c2ccc(Cl)s2)nc1 [N^2-{[6-(5-chloro-2-thienyl)pyridin-3-yl]carbonyl}-N-[2-(4-fluorophenyl)-1,1-dimethylethyl]-L-α-glutamine]"
